Consider `O=c1ccoc(C(O)c2cccnc2)c1O` (stereo not drawn), for which the melting point – broadly, the temperature, or range, at which the solid turns liquid – lay in the range of 176 to 180 °C. `CCOC(=O)C(CCCCNC(=O)OC(C)(C)C)NC(=O)C=CC(=O)c1ccccc1` (stereo not drawn) came in with a melting point of 91 to 94 °C. In turn, `COc1cc(C(=O)O)ccc1Cn1cc(/C=C/C(=O)N(C)C)c2ccc(/C=C/C(=O)N(C)C)cc21` yielded a melting point of 270 to 272 °C. As to `C[Si](C)(C)CCC1=C(OC(=O)c2ccccc2)C(=O)c2ccccc2C1=O`, the melting point was 92 to 95 °C.

In the case of `CCC(N)(P(=O)(O)O)P(=O)(O)O`, the melting point was found to be 282 °C. In turn, `N#CN=C(N)NCCCCNC(=O)[C@@H](Cc1ccccc1)NC(=O)CCCC(=O)O` registered a melting point of 63 °C. In turn, `CNC(=O)c1cc(C)ccc1NC(=O)c1ccc(O)cc1` registered a melting point of 250 to 252 °C. For `CCC(=O)NCCc1c(-c2ccccc2)nn2ccc3c(c12)CCO3` the value was 169 to 170 °C; for `COC(=O)c1cc(-n2c(-c3ccccc3)cc3c2CCc2ccccc2-3)ccc1O`, 164 to 166 °C; for `CS(=O)(=S)OCCCCCCCCCCOS(C)(=O)=S` (stereo not drawn), 45 to 52 °C. Then `O=Cc1cc(F)c(NC(=O)C(F)(F)F)c(F)c1`, with 122 to 125 °C.

In turn, `CC(C)(C)OC(=O)N(Cc1ccccc1)[C@H](COP(=O)(Oc1ccccc1)Oc1ccccc1)C(=O)O` came in with a melting point of 108 to 109 °C. For `Cc1ccccc1CC(=NC#N)NC(NC(=O)Cc1ccc(C#N)cc1)C(C)(C)C` (stereo not drawn) the value was 199 to 201 °C; for `CN1C(=O)C(NC(=O)C(CC2CC2)C2(C(N)=O)CC=CC2)N=C(c2ccccc2)c2ccccc21` (stereo not drawn), 238 to 240 °C. Take `COc1cc2c3c(c1)nc(SCc1ccc4ccccc4n1)n3CCC2`: the melting point lay in the range of 89 to 91 °C. In turn, `CCCC(Cl)(Cl)C(NC(=O)c1ccc(Cl)cc1)NC(=C[N+](=O)[O-])Nc1cccnc1` (stereo not drawn) came in with a melting point of 185 to 186 °C. `Cc1nccn1-c1nc(-c2ccc(Cl)cc2)c(CCC2=NCCO2)o1` returned a melting point of 119 to 120 °C. Then `Nc1ncnc2c1ncn2Cc1oc2ccc(F)cc2c(=O)c1-c1cccc(F)c1`, with 180 to 183 °C.

With `COc1nc(C)nc(NC(=O)NS(=O)(=O)c2cc(Br)cc3c2OS(=O)(=O)C(C)=C3)n1`, the melting point lay within 196 to 198 °C.

Regarding `COc1ccc(C(=O)OC2C(OC)C=C(C)C(=O)CC2(C)C)cc1` (stereo not drawn), the melting point is 100 to 101 °C. For `CC(=O)OC(C)c1ccc2occ(-c3nnn[nH]3)c(=O)c2c1` (stereo not drawn) the value was 231 to 232 °C. The molecule `O=C(CCC(=O)N[C@@H]1CCc2ccccc21)N[C@@H]1CCc2ccccc21` came in with a melting point of 266 to 269 °C. `CCC(CC)Nc1cc(C)nc(Oc2c(C)cc(Cl)cc2C)c1NC(C)=O` yielded a melting point of 161 to 164 °C.

Consider `O=C(O)c1ccccc1Nc1ccc(Cl)cc1[N+](=O)[O-]`, for which the melting point fell in the range of 235 to 247 °C. In turn, `CCC(Oc1cc(Cl)cc(Cl)c1)C(=O)NC(C)(C)C#CCOC` (stereo not drawn) yielded a melting point of 103 to 104 °C. The molecule `CC12CCC3c4ccccc4CCC3C1CCC2NCc1ccccc1` (stereo not drawn) came in with a melting point of 71 to 74 °C. For `CC1(C)CC(=O)C2=C(C1)NC1=C(C(=O)CC(C)(C)C1)C2c1ccc(Cl)c(Cl)c1` the value was greater than 300 °C; for `CCC1(C)OC(c2ccc(S(C)(=O)=O)cc2)=C(c2ccc(C(C)(C)C)cc2)C1=O` (stereo not drawn), 45 °C. `COc1ccc(N2CCN(c3c(C)c(C)c4c(c3C)C(c3ccc(F)nc3)C(C)(C)O4)CC2)cc1` (stereo not drawn) showed a melting point of 87 to 88 °C. Then `N#Cc1c(-c2ccc(Cl)cc2)[nH]c(SC(F)(F)F)c1Br`, with 241 to 243 °C.

The molecule `O=[N+]([O-])c1ccc(C2CCOCC2)cc1` displayed a melting point of 124 °C. For `C/C(=C\c1cc(F)cc(F)c1)C(=O)O` the value was 148 °C. For the molecule `CC(C)(C)OC(=O)Nc1cccc(C(=O)NCC(=O)OCc2ccccc2)c1`, the melting point lay in the range of 171 to 173 °C. For `Cc1c(CN2CCc3c(c4cccc(F)c4n3C)C2=O)ncn1C(=O)OCc1ccccc1` the value was 126 to 128 °C; for `Clc1ccc(N2CCC3(CCNCC3)CC2)cc1`, 95.5 to 97.4 °C. For `COc1ccc(C(=O)C2=CCCCC2)c(Cl)c1Cl` the value was 126 to 129 °C; for `CN(C)C(=O)NNC(=O)c1ccccc1`, 199 to 201 °C.

`CNC(=O)c1cccc(NC(=O)CC2CCCCC2)c1` returned a melting point of 183 °C.

`O=C1CN(c2ccc(Cl)cc2)C(=S)N1c1ccc(Cc2ccccc2)cc1` yielded a melting point of 153 °C.

In the case of `OC(Cc1ccc(F)cc1)(Cn1cncn1)C1(Cl)CC1` (stereo not drawn), the melting point came out at 111 °C. With `COc1ccc(C(=O)c2cc(-c3ccc(S(C)(=O)=O)cc3)c(N3CCOCC3)s2)cc1`, the melting point came to 154 °C.

On to `CN(C)c1ccc(NC(=O)N(Cc2ccco2)C[C@@H]2CCC[C@H](CN(Cc3ccco3)C(=O)Nc3ccc(N(C)C)cc3)C2)cc1`, for which the melting point was 68 to 73 °C. For `Cc1nn(-c2cc(Oc3ccc(C(=O)O)cc3)c(Cl)cc2F)c(=O)n1C(F)F` the value was 184 to 185 °C; for `CCS(=O)(=O)c1ccc(C2=C(c3ccc(S(C)(=O)=O)cc3)OC(C)(C)C2=O)cc1`, 198 to 203 °C. For `C=C(C)C(=O)OCCCc1ccc(-c2ccc(OC(=O)C(=C)C)cc2)cc1` the value was 69 °C; for `CS(=O)(=O)Nc1cc2c(cc1Oc1ccccc1)C(NS(C)(=O)=O)C=C2` (stereo not drawn), 154 °C; for `COc1ccnc(OC)c1CON=C(C)c1cc(C)cc(C)n1`, 114 to 116 °C.

Molecule `CC(C)c1cccc2c1CC(C(=O)O)SCC2=O` (stereo not drawn) gave a melting point of 157 to 158 °C.

On to `Cc1[nH]c2ccc(Br)cc2c1Cc1cccnc1`, for which the melting point is 188 to 190 °C.

For the molecule `O=C(O)CC(Sc1nc2ccccc2s1)C(=O)O` (stereo not drawn), the melting point is 165 to 168 °C. As for `CC(C)(C)OC(=O)Nc1ccc(-c2ccccc2F)cc1NC(=O)CC(=O)c1cc(C#N)ccc1F`, the melting point came out at 170 °C. Consider `Cc1cc(N2N=CCNC2=O)cc(Cl)c1C(=O)c1ccc(Cl)cc1`, for which the melting point was in the range of 171 to 172 °C. For `Cn1nc(N)c(C#N)c1N` the value was 194 °C; for `NC(=O)N(O)CCNC(=O)c1cccc(C(=O)c2ccccc2)c1`, 168 to 170 °C. Then `CC(=CN=Cc1ccccc1Cl)c1cccs1`, with 102 °C; and `COc1ccnc(CCc2nc3cc(-c4ccc(S(=O)(=O)Nc5ccc(C)cc5)cc4)cnc3[nH]2)c1`, with 219 to 220 °C; and `CC(=O)Nc1ccc(NC(=O)c2ccc(-c3[nH]nc4c3C(=O)c3c(NC(=O)NN5CCOCC5)cccc3-4)s2)cc1`, with 253 to 254 °C. Then `O=C(CC(=O)c1cccn1Cc1ccc(F)cc1)c1ccncn1`, with 128 to 129 °C.

With `Cc1ccnc(-c2ccccc2)c1C(=O)O`, the melting point lay within 210 to 212 °C. As to `CN1CCN(c2nc3ccc(Br)c4c3n2CCC4)CC1`, the melting point was in the range of 132 to 133 °C. For `CC(C)NC(=O)NOCc1nc2c(N)nc3ccccc3c2n1CC(C)(C)O`, the melting point fell in the range of 231 to 233 °C. For `CON=Cc1nc2c(N)nc3ccccc3c2n1CC(C)C` the value was 181 to 183 °C; for `CCCCCCCCCCCc1nccn1-c1nc(-c2ccc(Cl)cc2)c(CCCOc2ccccc2OC)o1`, 53 to 54 °C; for `COc1cc(S(C)(=O)=O)c(F)cc1OCCCl`, 85 to 87 °C. For `CC(C)c1c(Cl)nc(Cl)nc1Cl` the value was 69.4 °C. The molecule `CCCOc1ccc(S(=O)(=O)N2CCN(CCOC(=O)CCC)CC2)cc1-c1nc2c(CCC)cn(CC)c2c(=O)[nH]1` registered a melting point of 71.5 to 73 °C. With `O=C(CCc1cc(Br)c(OC(=O)c2c3ccccc3nc3ccccc23)c(Br)c1)ON1C(=O)CCC1=O`, the melting point was 175 to 176 °C. In turn, `Cn1ccnc1N1CCN(CC(=O)c2ccc(NS(C)(=O)=O)cc2)CC1` came in with a melting point of 164 to 165 °C. On to `O=C(Nc1cnc2c(c1)nc1n2CCC1)c1cc2cc(F)ccc2n1Cc1cccc(F)c1`, for which the melting point was 227 to 229 °C. For `Cc1ccc(COc2ccc(C(=O)NC[C@@H](C(=O)NO)N3CCCCC3)cc2)c2ccccc12` the value was 123 °C; for `O=S(=O)(NC1CCC(O)CC1)c1ccc(Cl)cc1` (stereo not drawn), 138 to 142 °C.

Turning to `c1ccc(Oc2cccc(CSc3nc4cnccc4[nH]3)c2)cc1`, the melting point was 156 to 158 °C.

`COc1cc(Nc2ncc3c(n2)C(C)(c2ccccc2)CCC3)ccc1-n1cnc(C)c1` (stereo not drawn) displayed a melting point of 207 to 209 °C. For `O=C1C(=NOCCO)Oc2ccccc21` the value was 110 to 111 °C; for `CCCCOc1ccccc1C=CC(=O)c1ccc(OC)c(OC)c1OC`, 129 to 130 °C. Then `O=C1c2cc(OC(F)(F)F)ccc2S(=O)(=O)N1CCCCBr`, with 77 to 78 °C; and `O=C(CCl)N1CCOc2ccccc21`, with 107 to 108 °C.

`Cc1ccc(-c2nc(CCCCCCOC(C)(C)c3nnn[nH]3)c(C)o2)cc1` yielded a melting point of 87 °C. Regarding `COc1ccc(-n2c3ccccc3c3cc(C=C(C#N)c4cc(C(F)(F)F)cc(C(F)(F)F)c4)ccc32)cc1`, the melting point was in the range of 198 to 200 °C. In turn, `CC(=O)OCc1cc(COC(C)=O)n(C(c2ccccc2)(c2ccccc2)c2ccccc2)n1` gave a melting point of 119 to 121 °C. In the case of `CCOC(=O)c1cn(-c2cc(N(C)C)c(F)cc2F)c2nc(Cl)c(F)cc2c1=O`, the melting point was in the range of 158 to 163 °C.

The molecule `O=Cc1cc2cc3c(cc2nc1Cl)OCCO3` returned a melting point of 222 to 224 °C.

The molecule `CC(=O)OC(C)c1cc2c(s1)C(=O)c1ccsc1C2=O` (stereo not drawn) displayed a melting point of 174 to 176 °C.

`CCO[PH](=O)C#Cc1c(C(C)C)c2ccccc2n1-c1ccc(F)cc1` (stereo not drawn) came in with a melting point of 80 to 82.5 °C. For the molecule `CCN(CC)C(=O)c1c(C=O)ccnc1OC`, the melting point is less than 50 °C. In turn, `O=C(O)CCCCCCCCCCCCCCCCCCCCCN1C(=O)C=CC1=O` registered a melting point of 106 °C.

As to `CC1(C)CC(=O)C(S(=O)Cc2ccc(Cl)cc2)=C(O)C1` (stereo not drawn), the melting point is 144 to 145 °C. Then `O=S(=O)(C(=CNc1ccc(Br)cn1)S(=O)(=O)c1ccccc1)c1ccccc1`, with 177 to 179 °C.

(Values after a melting point compilation (Tetko et al.; mined from patent text by program, amines drawn as free bases though some values may be those of a salt).)
